Where a name gives a salt, the structure may show the parent alone.
Species: Mus musculus
Assay: Effect on mouse allogenic mixed lymphocyte reaction (MLR)
Assay type: functional

| IC50 [µM] | SMILES |
| --- | --- |
| > 10 | CCCCCCCCCCCCCCCCCCC(CO)CO |
| 0.012 | CCCCCCCCCCCCCCCCCCC(N)(CO)CO |
| 0.14 | CCCCCCCCCCCCCCCCCCC(N)CO (configuration not stated) |
| 0.011 | CCCCCCCCc1ccc(CCC(N)CO)cc1 (configuration not stated) |
| 0.0061 | CCCCCCCCc1ccc(CCC(N)(CO)CO)cc1 [FINGOLIMOD HYDROCHLORIDE] |
| > 10 | CCCCCCCCCCCCCCCCCCN [OCTADECYLAMINE] |

| SMILES | IC50 [µM] |
| --- | --- |
| CCCCCCC(=O)CCCCCC/C=C/C[C@@H](O)[C@H](O)[C@@](N)(CO)C(=O)O [MYRIOCIN] | 0.008 |
